According to patent US10526323B2, “Indazole and azaindazole substituted compounds as mGluR4 allosteric potentiators, compositions, and methods of treating neurological dysfunction” (Vanderbilt University, priority 2015, dated 2020):

Molecular target: mGluR4 (UniProt Q14833)
Test: mGluR4 potentiation assay: increase in response to an EC20 concentration of agonist (species not given)
Type: cell-based
Details: EC50 for potentiation of mGluR4; table does not state human or rat
In short: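 Human mGluR4 was expressed in CHO cells read with a Ca2+-sensitive dye; rat mGluR4 was co-expressed with GIRK in […] read by thallium flux. Potentiation is the rise over agonist-alone response, with EC50 and maximal potentiation from non-linear fits.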

Row | Compound | EC50 [nM]
1 | c1cc2c(cnn2CC2CCC2)cc1Nc1n[nH]c2c1CCCC2 [Example 81, 1-(cyclobutylmethyl)-N-(4,5,6,7-tetrahydro-1H-indazol-3-yl)-1H-indazol-5-amine] | > 10000
2 | Cc1nn(C)c2ncc(Nc3n[nH]c4cccnc34)cc12 [Example 268, N-(1,3-dimethyl-1H-pyrazolo[3,4-b]pyridin-5-yl)-1H-pyrazolo[4,3-b]pyridin-3-amine] | > 30000
3 | Cc1nn(C(C)C)c2ncc(Nc3n[nH]c4ccccc34)cc12 [Example 269, N-(1H-indazol-3-yl)-1-isopropyl-3-methyl-1H-pyrazolo[3,4-b]pyridin-5-amine] | 2550
4 | Cn1cc2c(Cl)cc(Nc3n[nH]c4cccnc34)cc2n1 [Example 3, N-(4-chloro-2-methyl-2H-indazol-6-yl)-1H-pyrazolo[4,3-b]pyridin-3-amine] | 525
5 | Cc1nn(CC2CCC2)c2ccc(Nc3n[nH]c4ccccc34)cc12 [Example 71, N-(1-(cyclobutylmethyl)-3-methyl-1H-indazol-5-yl)-1H-indazol-3-amine] | 342
6 | Cc1nn(CC2CC(F)(F)C2)c2ccc(Nc3n[nH]c4cccnc34)cc12 [Example 288, N-(1-((3,3-difluorocyclobutyl)methyl)-3-methyl-1H-indazol-5-yl)-1H-pyrazolo[4,3-b]pyridin-3-amine] | 680
7 | Cc1nn(C(C)(C)C)c2ccc(Nc3n[nH]c4cccnc34)cc12 [Example 97, N-(1-(tert-butyl)-3-methyl-1H-indazol-5-yl)-1H-pyrazolo[4,3-b]pyridin-3-amine] | 575
8 | CC(C)n1ncc2cc(Nc3n[nH]c4cccnc34)cnc21 [Example 152, N-(1-isopropyl-1H-pyrazolo[3,4-b]pyridin-5-yl)-1H-pyrazolo[4,3-b]pyridin-3-amine] | 371
9 | c1nc2cnn(CC3CCC3)c2cc1Nc1n[nH]c2c1CCCC2 [Example 150, 1-(cyclobutylmethyl)-N-(4,5,6,7-tetrahydro-1H-indazol-3-yl)-1H-pyrazolo[4,3-b]pyridin-6-amine] | > 10000

The next compounds have a lower EC50 than those just listed; values first:

Row | EC50 [nM] | Compound
10 | 186 | Cc1nn(CC2CCC2)c2ccc(Nc3n[nH]c4nccnc34)cc12 [Example 73, N-(1-(cyclobutylmethyl)-3-methyl-1H-indazol-5-yl)-1H-pyrazolo[3,4-b]pyrazin-3-amine]
11 | 160 | Cc1nn(CC(C)(C)C)c2ncc(Nc3n[nH]c4cccnc34)cc12 [Example 262, 1-(2,2-dimethylpropyl)-3-methyl-N-(1H-pyrazolo[4,3-b]pyridin-3-yl)pyrazolo[3,4-b]pyridin-5-amine]
12 | 157 | Cc1cc(Cn2nc(C)c3cc(Nc4n[nH]c5ncccc45)ccc32)no1 [Example 77, N-(3-methyl-1-((5-methylisoxazol-3-yl)methyl)-1H-indazol-5-yl)-1H-pyrazolo[3,4-b]pyridin-3-amine]
13 | 128 | Cn1nc(C2CC2)c2ccc(Nc3n[nH]c4ccccc34)cc21 [Example 12, N-(3-cyclopropyl-1-methyl-1H-indazol-6-yl)-1H-indazol-3-amine]
14 | 117 | Clc1cc(Nc2n[nH]c3cccnc23)cc2cn(CC3CCC3)nc12 [Example 66, N-(7-chloro-2-(cyclobutylmethyl)-2H-indazol-5-yl)-1H-pyrazolo[4,3-b]pyridin-3-amine]
15 | 83 | Cc1cc(Cn2ncc3cc(Nc4n[nH]c5nccnc45)ccc32)no1 [Example 104, N-(1-((5-methylisoxazol-3-yl)methyl)-1H-indazol-5-yl)-1H-pyrazolo[3,4-b]pyrazin-3-amine]
16 | 59 | C=CCn1nc(C)c2cc(Nc3n[nH]c4cccnc34)ccc21 [Example 109, N-(1-allyl-3-methyl-1H-indazol-5-yl)-1H-pyrazolo[4,3-b]pyridin-3-amine]
17 | 46 | Cn1nc(OC2CCOCC2)c2ccc(Nc3n[nH]c4cccnc34)cc21 [Example 225, N-(1-methyl-3-((tetrahydro-2H-pyran-4-yl)oxy)-1H-indazol-6-yl)-1H-pyrazolo[4,3-b]pyridin-3-amine]
